In publication PMC6791832, “In vitro inhibition of human red blood cell acetylcholinesterase (AChE) by temephos-oxidized products” (Scientific Reports, 2019):

Tests used:
[1] = rats, orally administered; cited from earlier work
[2] = target: T1, human red blood cell acetylcholinesterase (RBC AChE) (Homo sapiens, UniProt P22303); assay: Human RBC AChE inhibition assay (Ellman method, hemolyzed whole blood); type: biochemical; conditions: for IC50: hemolyzed samples preincubated with compound for 15 min at 37 °C, three independent experiments in duplicate
T1 construct: from tissue; host or cells: whole blood (hemolyzed, 1:100 in Triton X-100) from one healthy adult volunteer
T1 sequence (P22303 32-617 isoform P22303-2 limits assumed): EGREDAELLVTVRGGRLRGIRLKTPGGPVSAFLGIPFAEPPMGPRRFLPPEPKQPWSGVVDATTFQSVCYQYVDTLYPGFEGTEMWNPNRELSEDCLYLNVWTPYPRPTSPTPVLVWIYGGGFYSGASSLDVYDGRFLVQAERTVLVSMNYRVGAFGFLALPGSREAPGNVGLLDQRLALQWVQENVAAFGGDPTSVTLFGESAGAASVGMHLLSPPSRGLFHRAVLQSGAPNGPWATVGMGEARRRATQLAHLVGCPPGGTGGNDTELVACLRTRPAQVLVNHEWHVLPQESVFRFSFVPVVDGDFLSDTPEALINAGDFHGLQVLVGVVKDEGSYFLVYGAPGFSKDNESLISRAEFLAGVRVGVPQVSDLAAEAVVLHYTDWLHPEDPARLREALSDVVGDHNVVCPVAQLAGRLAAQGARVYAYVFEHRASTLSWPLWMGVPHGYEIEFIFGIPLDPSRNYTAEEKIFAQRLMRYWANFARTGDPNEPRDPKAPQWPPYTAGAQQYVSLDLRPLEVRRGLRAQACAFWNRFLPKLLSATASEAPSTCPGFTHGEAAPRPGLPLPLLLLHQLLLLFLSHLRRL
Experimental: RBC AChE and BuChE assays were performed on whole human blood and serum, respectively. In this study, all methods were conducted in accordance with guidelines and regulations to comply with the GLP and chemical wastes management established by the Cinvestav-IPN. The sampling protocol was approved by the Bioethics Commission of Nayarit State, Mexico (CEBN/011/2017). The subject gave written informed consent for their participation and blood samples were collected early in the morning. A human blood sample was collected from a healthy adult volunteer from Mexico City.
RBC AChE activity was evaluated according to the method reported by Ellman et al.[12] with some modifications. Briefly, fresh human whole blood samples were diluted (1:100) with Triton X-100 (0.03% in phosphate buffer 0.1 M, pH 7.4). The enzymatic assay media consisted of 500 µL diluted blood, 1 mL of phosphate buffer 0.1 M, pH 7.4, 0.05 mL of DTNB (10 mM), and 5 µL of ethopropazine (6 mM), which were mixed and incubated at 37 °C for 10 min. The reaction was started by the addition of 25 µL of substrate ATCh (28.3 mM) and absorbance was monitored at 436 nm during 3 min with a UV-Vis spectrophotometer (Thermo Scientific GENESYS 10S). AChE activity was corrected for hemoglobin (Hb) content and was reported in U/g Hb. The Hb content was determined at 540 nm using the Drabkin reagent. The molar extinction coefficient of the TNB hydrolysis product was ε = 10,600 M^−1 cm^−1.
To determine the inhibitory effect on human RBC AChE activity, the hemolyzed samples were preincubated with Tem and its metabolites for 15 min at 37 °C. The RBC AChE activity was evaluated as previously described by Bernal-Hernández et al.[13] in three independent experiments conducted in duplicate. Stock solutions of Tem metabolites were individually prepared in ethanol (Tem-SO, 4.14 mM; Tem-dox-SO, 4.44 mM, and Tem-dox-SO2, 4.20 mM). These solutions were used to prepare other diluted solutions in phosphate buffer (0.1 M, pH 7.4) to achieve the following concentrations: 0.1 to 10 μM Tem-SO, 0.05 to 5 μM Tem-dox-SO, and 0.02 to 2 μM Tem-dox-SO2. […] Log IC50, IC50, and R^2 values were estimated from the normalized AChE or BuChE activity with respect to the control assays (absence of the metabolite) and plotted as a function of the logarithm of metabolite concentration using Prism 8 software (GraphPad Software).

Row | SMILES | absorbed into the bloodstream [1] | effect on human RBC AChE activity ([2]; even at higher concentrations than 50 µM) | IC50 [2] [µM]
1 | COP(=S)(OC)Oc1ccc(Sc2ccc(OP(=S)(OC)OC)cc2)cc1 [Tem, O,O,O′,O′-tetramethyl O,O′-thiodi-p-phenylene bis(phosphorothionate)] | at least 40% | did not exhibit any effect | 
2 | COP(=S)(OC)Oc1ccc([S+]([O-])c2ccc(OP(=S)(OC)OC)cc2)cc1 [Tem-SO] |  |  | 0.553
3 | COP(=O)(OC)Oc1ccc(S(=O)(=O)c2ccc(OP(=O)(OC)OC)cc2)cc1 [Tem-dox-SO2] |  |  | 0.0249
4 | COP(=O)(OC)Oc1ccc([S+]([O-])c2ccc(OP(=O)(OC)OC)cc2)cc1 [Tem-dox-SO] |  |  | 0.0977
